# Numbers after ± are expanded uncertainties.
# Experiment: activity coefficient (dimensionless); of the first substance listed, at infinite dilution; xn = mol fraction of the nth substance listed
# Settings: 323.15 K; 101 kPa; Liquid; Chromatography; x1 = 0
row,Structure (SMILES),activity coefficient
1,C#CCCCC [1-hexyne] + CCCCCCCCCC[n+]1ccn(CCCB(O)O)c1.[Br-],1.77 ± 0.12
2,CC(C)CO [2-methyl-1-propanol] + C=CCn1cc[n+](C)c1.[Br-],0.33 ± 0.03
3,CCCCCC [hexane] + C=CCn1cc[n+](C)c1.[Br-],25.1 ± 1.7
4,CCCCCCC [heptane] + C=CCn1cc[n+](C)c1.[Br-],49.6 ± 3.4
5,c1ccccc1 [benzene] + C=CC[n+]1ccn(CCCCCCCCCCCC)c1.[Br-],1.08 ± 0.07
6,CCCCCCC [heptane] + C=CC[n+]1ccn(CCCCCCCCCCCC)c1.[Br-],5.32 ± 0.36
7,CCO [ethanol] + C=CC[n+]1ccn(CCCCCCCCCCCC)c1.[Br-],0.23 ± 0.03
8,CCCCCC [hexane] + CCCCCCCCCCCC[n+]1ccn(CCCB(O)O)c1.[Br-],4.65 ± 0.32
9,ClC(Cl)(Cl)Cl [tetrachloromethane] + C=CC[n+]1ccn(CCCCCCCCCCCC)c1.[Br-],0.7 ± 0.05
10,CCCC(C)=O [pentan-2-one] + C=CC[n+]1ccn(CCCCCCCCCCCC)c1.[Br-],1.62 ± 0.11
11,ClCCl [dichloromethane] + CCCCCCCCCCCC[n+]1ccn(CCCB(O)O)c1.[Br-],0.34 ± 0.03
12,c1ccsc1 [thiophene] + C=CC[n+]1ccn(CCCCCCCCCCCC)c1.[Br-],0.77 ± 0.05
13,CC(C)CO [2-methyl-1-propanol] + C=CC[n+]1ccn(CCCCCCCC)c1.[Br-],0.29 ± 0.03
14,C=CCCCC [hex-1-ene] + CCCCCCCCCCCC[n+]1ccn(CCCB(O)O)c1.[Br-],3.6 ± 0.25
15,ClC(Cl)(Cl)Cl [tetrachloromethane] + CCCCCCCCCCCC[n+]1ccn(CCCB(O)O)c1.[Br-],0.9 ± 0.06
16,CC(C)O [propan-2-ol] + C=CCn1cc[n+](C)c1.[Br-],0.69 ± 0.05
17,"C1COCCO1 [1,4-dioxane] + C=CCn1cc[n+](C)c1.[Br-]",1.59 ± 0.11
18,CCCCCC [hexane] + CCCCCCCC[n+]1ccn(CCCB(O)O)c1.[Br-],18.2 ± 1.2
19,c1ccccc1 [benzene] + C=CC[n+]1ccn(CCCCCCCC)c1.[Br-],1.4 ± 0.09
20,c1ccsc1 [thiophene] + CCCCCCCC[n+]1ccn(CCCB(O)O)c1.[Br-],1.2 ± 0.08
21,"Cc1ccccc1C [1,2-dimethylbenzene] + CCCCCCCCCC[n+]1ccn(CCCB(O)O)c1.[Br-]",1.89 ± 0.13
22,ClC(Cl)Cl [trichloromethane] + C=CC[n+]1ccn(CCCCCCCC)c1.[Br-],0.14 ± 0.03

row,Structure (SMILES),activity coefficient
1,CO [methanol] + CCCCCCCC[n+]1ccn(CCCB(O)O)c1.[Br-],0.04
2,CC(C)O [propan-2-ol] + C=CC[n+]1ccn(CCCCCCCCCCCC)c1.[Br-],0.29 ± 0.03
3,ClC(Cl)(Cl)Cl [tetrachloromethane] + CCCCCCCC[n+]1ccn(CCCB(O)O)c1.[Br-],1.23 ± 0.08
4,C#CCCCC [1-hexyne] + C=CC[n+]1ccn(CCCCCCCC)c1.[Br-],2.04 ± 0.14
5,C#CCCCCC [1-heptyne] + C=CC[n+]1ccn(CCCCCCCCCCCC)c1.[Br-],1.87 ± 0.13
6,CCC[N+](=O)[O-] [1-nitropropane] + C[n+]1ccn(CCCB(O)O)c1.[Br-],15.8 ± 1.1
7,CCC(C)=O [butanone] + C=CC[n+]1ccn(CCCCCCCCCC)c1.[Br-],1.48 ± 0.1
8,CCCCCCCC [octane] + CCCCCCCC[n+]1ccn(CCCB(O)O)c1.[Br-],23.6 ± 1.6
9,"Cc1ccccc1C [1,2-dimethylbenzene] + C=CC[n+]1ccn(CCCCCCCC)c1.[Br-]",2.39 ± 0.16
10,CCCCCCCCC [nonane] + CCCCCCCCCCCC[n+]1ccn(CCCB(O)O)c1.[Br-],6.99 ± 0.48
11,C1CCCCC1 [cyclohexane] + C=CCn1cc[n+](C)c1.[Br-],15.7 ± 1.1
12,CCCCCCCCC [nonane] + C=CCn1cc[n+](C)c1.[Br-],65.6 ± 4.5
13,CCC(C)=O [butanone] + CCCCCCCCCCCC[n+]1ccn(CCCB(O)O)c1.[Br-],1.33 ± 0.09
14,C=CCCCC [hex-1-ene] + C=CC[n+]1ccn(CCCCCCCCCC)c1.[Br-],5.89 ± 0.4
15,c1ccsc1 [thiophene] + CCCCCCCCCCCC[n+]1ccn(CCCB(O)O)c1.[Br-],0.9 ± 0.06
16,CC#N [acetonitrile] + C[n+]1ccn(CCCB(O)O)c1.[Br-],3.3 ± 0.22
17,CCO [ethanol] + C=CC[n+]1ccn(CCCCCCCC)c1.[Br-],0.27 ± 0.03
18,C=CCCCC [hex-1-ene] + C=CCn1cc[n+](C)c1.[Br-],16.5 ± 1.1
19,CC#N [acetonitrile] + C=CC[n+]1ccn(CCCCCCCCCC)c1.[Br-],0.89 ± 0.06
20,CCCCCCCCC [nonane] + CCCCCCCCCC[n+]1ccn(CCCB(O)O)c1.[Br-],9.92 ± 0.68
21,"Cc1cccc(C)c1 [1,3-dimethylbenzene] + CCCCCCCC[n+]1ccn(CCCB(O)O)c1.[Br-]",3.57 ± 0.24
22,CC#N [acetonitrile] + C=CCn1cc[n+](C)c1.[Br-],1.04 ± 0.07

row,Structure (SMILES),activity coefficient
1,CCCO [propan-1-ol] + C=CCn1cc[n+](C)c1.[Br-],0.54 ± 0.04
2,"Cc1ccccc1C [1,2-dimethylbenzene] + C=CCn1cc[n+](C)c1.[Br-]",8.98 ± 0.61
3,CCCCCCC [heptane] + C=CC[n+]1ccn(CCCCCCCCCC)c1.[Br-],11.1 ± 0.76
4,C1CCCCC1 [cyclohexane] + C=CC[n+]1ccn(CCCCCCCC)c1.[Br-],5.66 ± 0.39
5,CCc1ccccc1 [ethylbenzene] + CCCCCCCCCCCC[n+]1ccn(CCCB(O)O)c1.[Br-],3.83 ± 0.26
6,CCCCCCCC [octane] + C=CC[n+]1ccn(CCCCCCCCCCCC)c1.[Br-],6.37 ± 0.43
7,C#CCCCC [1-hexyne] + CCCCCCCCCCCC[n+]1ccn(CCCB(O)O)c1.[Br-],1.86 ± 0.13
8,ClC(Cl)(Cl)Cl [tetrachloromethane] + C[n+]1ccn(CCCB(O)O)c1.[Br-],21.2 ± 1.4
9,C#CCCCC [1-hexyne] + C=CC[n+]1ccn(CCCCCCCCCCCC)c1.[Br-],1.56 ± 0.1
10,C=CCCCC [hex-1-ene] + C=CC[n+]1ccn(CCCCCCCCCCCC)c1.[Br-],3.47 ± 0.24
11,Cc1ccccc1 [toluene] + CCCCCCCCCC[n+]1ccn(CCCB(O)O)c1.[Br-],1.8 ± 0.12
12,C#CCCCC [1-hexyne] + CCCCCCCC[n+]1ccn(CCCB(O)O)c1.[Br-],2.77 ± 0.19
13,CCCCCCCC [octane] + CCCCCCCCCC[n+]1ccn(CCCB(O)O)c1.[Br-],8.81 ± 0.6
14,CO [methanol] + C=CC[n+]1ccn(CCCCCCCC)c1.[Br-],0.17 ± 0.03
15,CCC(C)=O [butanone] + C=CC[n+]1ccn(CCCCCCCCCCCC)c1.[Br-],1.43 ± 0.09
16,CCCCCCCCC [nonane] + C=CC[n+]1ccn(CCCCCCCCCC)c1.[Br-],16.9 ± 1.2
17,c1ccccc1 [benzene] + C=CCn1cc[n+](C)c1.[Br-],3.6 ± 0.25
18,CC#N [acetonitrile] + C=CC[n+]1ccn(CCCCCCCCCCCC)c1.[Br-],0.86 ± 0.06
19,CO [methanol] + C=CCn1cc[n+](C)c1.[Br-],0.18 ± 0.03
20,"C1COCCO1 [1,4-dioxane] + C[n+]1ccn(CCCB(O)O)c1.[Br-]",11.2 ± 0.77
